Here are results for one compound from US11458153B2, “Drug delivery composition comprising a self-assembled gelator” (The Brigham and Women's Hospital, Inc., priority 2008, dated 2022).

Data set [1] is described as follows: Gelation studies with Apn-based prodrug gelators in water and organic solvents. The data set is classed as physicochemical. Set-up: key to Gelation ability: G = gel; P = precipitate; S = soluble; I = insoluble. The text has this:
Gelation Studies with Prodrug-Based Gelators. Gelation abilities of Apn based amphiphilic prodrugs have been investigated thoroughly in a wide range of solvents. For detailed gelation results, see Table 1, below). Typically, the required amount of gelator was placed in a glass vial and with an appropriate solvent. […] The resulting solution was slowly cooled to room temperature and gelation was visually observed. […] Despite of prolonged heating Apn-11-CH3 was not soluble in water. […] In addition, Apn-7-COOH is soluble in basic solutions (pH is more than 8).
All gels were opaque in nature and stable for several weeks.
Preparation of Gels. Typically, gelator (0.1-5 mg) and required solvent (0.1-1 mL) were placed into a 2 mL scintillation vial, which was then sealed with a screw cap. The vial was heated with shaking until the solid was completely dissolved.

The test system of data set [2] is mesenchymal stem cells (MSCs). In words: MSC adipogenic differentiation, Oil Red O staining. Format: cell-based, human. Conditions: 250 μM, 23 days of induction. As to the method:
Unlike typical fibroblast cell lines used for toxicity screening, cultured mesenchymal stem cells are highly sensitive to the presence of soluble factors and can often loose their capacity for multi-lineage differentiation or differentiate into non-desired lineages depending on the culture conditions. To examine the impact of the acetaminophen amphiphilic prodrugs on multi-lineage differentiation of MSCs, cells were treated with adipogenic and osteogenic induction media in presence of amphiphiles followed by respective colorimetric histological staining.
Adipogenic Differentiation. MSCs were seeded in the wells of 24 well plates, and were culture in MSC expansion media until they reach 90% confluence (note: in control samples there was no amphiphile present, whereas in experimental samples 250 μM of Apn-based amphiphile was present). Adipogenic differentiation was induced by culturing the cells for 23 days in adipogenic induction media (from Lonza—MSCs Adipogenic Single Quote kit containing h-Insulin (recombinant), L-Glutamine, Dexamethasone, Indomethacin, IBMX (3-isobuty-1-methyl-xanthine), Pen/Strep) and adipogenic maintenance media (from Lonza—MSCs Adipogenic Single Quote kit containing h-Insulin (recombinant), L-Glutamine, Pen/Strep). […] Adipogenesis was evaluated by Oil Red O staining. Following aspiration of the media, cells were washed once with PBS, and fixed in PBS with 3.7% formaldehyde for 30 min at room temperature. Following fixation cells were rinsed with distilled water for a few minutes, and incubated with isopropanol containing an Oil Red O working solution (prepared by diluting 30 mL of 0.5% isopropanol/Oil Red O solution with 20 mL of distilled water). After 45 minutes culture well were rinsed twice with distilled water and 1 mL of hematoxylin was added to each well for 1 minute followed by aspiration and washing with distilled water. The wells were viewed using an inverted phase contrast microscope.

“Also recorded” adds a separate entry of the source.

As for `CC(=O)Nc1ccc(OC(=O)CCCCCCC(=O)O)cc1` [Apn-7-COOH], the “solubility in basic solutions” value in data set [1] (pH is more than 8) is “soluble”. Also, the Gelation ability result in data set [1] (solvent chloroform) was “S”; in data set [1] (solvent ethanol), “S”; in data set [1] (solvent ethyl acetate) it was “I”; in data set [1] (solvent isopropanol) it was “I”; in data set [1] (solvent methanol) it was “S”; in data set [1] (solvent t-butanol), “I”. Also, in data set [1] (solvent water), the Gelation ability entry was “G”. In addition, the minimum gelation concentration in data set [1] (solvent water) came out at 0.4 wt/v %. The “gelation in water (in words)” value in data set [1] (water / aqueous solutions) was “forms excellent gels”. In data set [2], the “adipogenic differentiation, Oil Red O (ORO) staining” value is “robust capacity; also recorded: equally stained for ORO”.
